This is an account of results in patent US20040167162A1, “Uses for anti-malarial therapeutic agents” (priority 2001, published 2004).

Counter-ions that a name gives are not always drawn. Like-named read-outs stand apart in the source and are kept apart here.

One series has as its system adenovirus. The following applies: cited from earlier work.
Another series relates to influenza viruses. The following applies: cited from earlier work.
The next series has as its system human corona virus. The following applies: cited from earlier work.
Series [1] concerns rhinovirus. The following applies: in particular human tracheal epithelial cells, rhinovirus group 14; cited from earlier work.
In another series the test system is ICAM-1. The following applies: treated cells; cited from earlier work.
Series [2] concerns rhinovirus. Put plainly: Blocking of rhinovirus infection of epithelial cells; effective inhibitory concentrations (Tables 1 and 2, FIG. 3). Type of series: cell-based. The source says:
(§1) Rhinovirus capable of viral replication causes the release of the pro-inflammatory […] chemokines, IP-10 and RANTES from infected epithelial cells.
(§2) For purposes of illustration, the effects of targeted delivery as opposed to systemic delivery of a representative anti-malarial, hydroxychloroquine, for prevention of rhinovirus infection is compared. As shown in Tables 1 and 2 and in FIG. 3, the effective inhibitory concentrations of this agent ranges from about 50 to 1000 microM (or about 20 to 400 micrograms/ml). Safe oral dosing of anti-malarials, such as chloroquine and hydroxychloroquine yields serum levels far below these ranges: 0.6 to 0.9 microM for chloroquine and 1.4 to 1.5 microM for hydroxychloroquine (MacKenzie, A H, “Pharmacologic actions of the 4-aminoquinoline compounds”, Am J Med, 1983, July: 5-10). Moreover, the inventor has noted that oral or systemic administration of HCQ cannot provide adequate plasma levels of HCQ to achieveefficacious results. Even at doses nearly twice that used in humans, peak serum concentrations following intravenous of administration of 10 mg/kg HCQ in rats was only 2 mcg/ml (FIG. 4); in dogs, peak whole blood concentrations were less than 3 mcg/ml (FIG. 5).

The conditions of series [3]: cited from earlier work.
In the next series the test system is IP-10/RANTES. The experiment in a line: Effect of HCQ on IP-10/RANTES production in primary human epithelial cells with exposure to HRV-16. Type of series: cell-based.
Excerpt: FIG. 1 graphically depicts the effect of 50 μm HCQ in the elaboration of IP-10 and RANTES in primary human epithelial cells with exposure to human rhinovirus type 16.
as §1
(§3) For example, treatment with hydroxychloroquine blocks the elaboration of the pro-inflammatory chemokines, IP-10 and RANTES from both primary tonsillar and immortalized epithelial cell lines (Table 1 & 2, FIG. 1 & 2). Since these chemokines figure prominently in generation of inflammatory responses and symptoms, this effect has important therapeutic implications.

A further series deals with IP-10 and RANTES. Put plainly: HCQ preincubation of BEAS-2B epithelial cells exposed to HRV-16, assayed for IP-10 and RANTES. Type of series: cell-based, human. The conditions noted are these: for IP-10: 6 hours preincubation / IP-10: 24 hours preincubation / RANTES: 6 hours preincubation: BEAS-2B. The method, then: FIG. 2 depicts graphically the effect of varying concentrations of HCQ preincubation on the elaboration of […] and RANTES in BEAS-2B epithelial cells exposed to human rhinovirus-16.
as §1, §3

Another series relates to Eosinophil. The experiment in a line: Eosinophil total superoxide production (FIG. 3). Type of series: cell-based. The text has this:
FIG. 3 graphically depicts the effect of HCQ on Eosinophil total Superoxide production. In FIG. 3, nil refers to control, i.e., the absence of HCQ; PMA refers to phorbol myristic acetate; PAF refers to platelet activating factor, and SE refers to standard error of the mean. The data in FIG. 3 are presented as means±SE; n=3. The * indicates p<0.05; ** indicates p<0.01.
Anti-malarial agents also block the secondary aspects of rhinovirus infections. Without wishing to be bound, it is believed that they are inhibit by blocking the secondary events of viral infections.

On the set-up of series [4]: species or system rats. The following applies: rat, in vivo, iv, 10 mg/kg.
Excerpt: FIG. 4 graphically depicts the mean whole blood concentration of HCQ following single day intravenous doses to male and female rats.
as §2

Details of series [5]: species or system dogs. The conditions noted are these: dog, in vivo, iv.
Excerpt: FIG. 5 graphically depicts the mean whole blood concentration of HCQ following single day intravenous doses to male and female dogs.
as §2

The subject of series [6] is antigen-induced early (EAR) and late airway responses (LAR) and airway hyperresponsiveness (AHR). The conditions noted are these: aerosolized; total dose of only 10 mg/d; cited from earlier work.
The subject of another series is asthma. The conditions noted are these: oral; cited from earlier work.
The conditions of series [7]: in vivo, po; cited from earlier work.

`Cl.N` [ammonium chloride]: the “cellular infection by adenovirus” value in the series on adenovirus was “block cellular infection”. Also, the “cellular infection by influenza viruses” value in the series with influenza viruses is recorded as “block cellular infection”. Moreover, the “infection of human corona virus” value in the series on human corona virus is on record as “block infection”.

Take `CO/C1=C\C(C)=C\[C@@H](C)[C@@H](O)[C@@H](C)C/C(C)=C/C=C/[C@H](OC)[C@@H]([C@@H](C)[C@@H](O)[C@H](C)[C@@]2(O)C[C@@H](O)[C@H](C)[C@@H](C(C)C)O2)OC1=O` [bafilomycin A1]: in the series on adenovirus, the “cellular infection by adenovirus” value is “block cellular infection”. In the series on influenza viruses, the “cellular infection by influenza viruses” value was “block cellular infection”. Also, in the series with human corona virus, the “infection of human corona virus” value is given as “block infection”. Also, in the series on rhinovirus [1], the infection by rhinovirus entry is “inhibit infection”. For the same compound, in the series on ICAM-1, the “expression of ICAM-1” value was “reduces expression”.

For `CCN(CC)CCCC(C)Nc1ccnc2cc(Cl)ccc12` (stereo not shown) [chloroquine], in the series on rhinovirus [2], the “rhinovirus infection of epithelial cells” value is “block rhinovirus infection”. In addition, the “cellular infection by adenovirus” value with adenovirus was “block cellular infection”. The “cellular infection by influenza viruses” value in the series with influenza viruses was “block cellular infection”.

On to `CCN(CCO)CCCC(C)Nc1ccnc2cc(Cl)ccc12` (stereo not shown) [hydroxychloroquine sulfate], for which the solubility in water result in series [3] is recorded as “readily soluble in water”.

With hydroxychloroquine [HCQ], in the series with IP-10/RANTES (HRV-16 + 50 microM HCQ, 24 hours of preincubation, primary human epithelial cells), the “IP-10: hours of preincubation 24” value came to 31 pg/mL. In addition, in the series with IP-10/RANTES (HRV-16 + 50 microM HCQ, 48 hours of preincubation, primary human epithelial cells), the “IP-10: hours of preincubation 48” value turned out to be 112 pg/mL. Besides, the “RANTES: hours of preincubation 48” value with IP-10/RANTES (HRV-16 + HCQ, 48 hours of preincubation, primary human epithelial cells) was 509 pg/mL. Moreover, the “release of pro-inflammatory CXC chemokines” value is “do not release” in the series on IP-10/RANTES (primary epithelial cells treated, then infected with RV); “has the same effect” in the series with IP-10 and RANTES (pre-incubation of immortalized epithelial cells (BEAS-2B)). Besides, the “IP-10: 6 hours preincubation” value came out at 3084 pg/mL with IP-10 and RANTES (HRV-16 + 0.01 μM HCQ); 2914 pg/mL with IP-10 and RANTES (HRV-16 + 0.1 μM HCQ); 3045 pg/mL with IP-10 and RANTES (HRV-16 + 1 μM HCQ); 31 pg/mL with IP-10 and RANTES (HRV-16 + 50 μM HCQ). Besides, the “IP-10: 24 hours preincubation” value in the series on IP-10 and RANTES (HRV-16 + 0.01 μM HCQ) is 2506 pg/mL; in the series with IP-10 and RANTES (HRV-16 + 0.1 μM HCQ), 1814 pg/mL; in the series with IP-10 and RANTES (HRV-16 + 1 μM HCQ) it was 2098 pg/mL; in the series with IP-10 and RANTES (HRV-16 + 50 μM HCQ), 31 pg/mL. The “RANTES: 6 hours preincubation” value in the series with IP-10 and RANTES (HRV-16 + 0.01 μM HCQ) came to 3326 pg/mL; in the series on IP-10 and RANTES (HRV-16 + 0.1 μM HCQ) it was 3128 pg/mL; in the series with IP-10 and RANTES (HRV-16 + 1 μM HCQ), 1994 pg/mL; in the series with IP-10 and RANTES (HRV-16 + 50 μM HCQ) it was 0 pg/mL. Also, the results for the “concentration at which IL-5 or PAF induced eosinophil superoxide is inhibited” value with Eosinophil and in the series with Eosinophil (conversion of the mM value) were “at least 0.5 mM” and “about 200 mcg/ml”, respectively. In addition, the “rhinovirus infection of epithelial cells” value in the series with rhinovirus [2] is on record as “block rhinovirus infection”. This compound registered a peak serum concentrations in [4] of 2 µg/mL. The “peak whole blood concentrations” value in [5] is listed as “less than 3 mcg/ml”. Also, the “effect in asthmatic sheep” value in series [6] was “therapeutic effects”. For the same compound, the “time of treatment after which therapeutic effect begins” value with asthma was more than 22 weeks. Moreover, the serum levels in series [7] is 1.4 to 1.5 µM.
